From patent publication US4223019A, “Synthetic peptides having pituitary growth hormone releasing activity” (Beckman Instruments, Inc., priority 1979, dated 1980) come the findings set out here.

In this experiment the test system is pituitaries removed from 20 day old female rats. As to the kind of experiment: In Vitro Growth Hormone Release Study. To be noted: mean ± SEM, control -180 ± 108. In kind it is cell-based, rat. On the procedure: Female rats of the CD-1 strain were housed in a constant temperature room at 24° C. with 14 hours light and 10 hours darkness. The rats were fed Purina brand rat chow ab libitum.
All studies were started between 0800 and 1000 hours.
Pituitaries were removed from 20 day old female rats. Two pituitaries were incubated at 36° C. in 1 ml of lactated Ringer's solution in 10 ml polytetrafluoroethylene beakers in a Dubnoff Shaker (90 cycles/min.). The pituitaries were incubated a total of 4 hours (P1, P2, I3, and I4). After two successive one hour preincubation periods (P1, P2), the peptide was added to the incubation medium hourly for 2 hours (I3, I4).
This in vitro study was performed in triplicate and a standard radioimmunoassay of growth hormone present in the incubation medium was performed in duplicate. The hormonal activity was calculated as the difference (Δ) of growth hormone (GH) levels between I3, I4 and P2, i.e., (I3 -P2) and (I4 -P2). P values were calculated by Students' t test using six growth hormone values for each value recorded.
The growth hormone radioimmunoassay reagents were distributed by the National Institute of Arthritis and […] (NIAMDD) program. The growth hormone values were calculated in terms of nanograms (ng) of a rat standard with a growth hormone potency of 0.61 units/mg.

Structures are written as SMILES. Square brackets hold non-standard residues; d marks the D form. Peptide text beside a SMILES is read from it.

`NCCCC[C@@H](N)C(=O)N[C@@H](Cc1ccc(O)cc1)C(=O)N[C@H](Cc1c[nH]c2ccccc12)C(=O)N[C@H](Cc1c[nH]c2ccccc12)C(=O)N[C@@H](Cc1ccccc1)C(N)=O` [H2 N--D--Lys--Tyr--D--Trp--D--Trp--Phe--CONH2] (H-[dK]Y[dW][dW]F-NH2): the “IN VITRO GROWTH HORMONE RELEASE (ΔGH, I3-P2 and I4-P2)” value was 1046 ± 266 ngΔGH/ml incubation medium (peptide 1μg, P Value <0.01); 1487 ± 197 ngΔGH/ml incubation medium (peptide 20μg, P Value <0.001); 1654 ± 329 ngΔGH/ml incubation medium (peptide 100μg, P Value <0.001).
